Measurements published in patent publication US20260166211A1, “SYSTEM FOR REMOVING PROTEIN BOUND UREMIC TOXINS DURING HEMODIALYSIS” (University of Washington, priority 2022, published 2026).
Read-outs that look alike come from different tables or passages of the source. Values belong to the molecule of their own block, whether it stands above or below them.

Legend:
[1] = target: T1, human albumin (HA) (Homo sapiens, UniProt P02768); assay: SPR adsorption and desorption cycles of HA on functionalized chips with release agents; assay type: binding; details: for SPR angle shift after HA binding: 2 mg/mL HA, functionalized SPR chip; for Release percentage (highest observed; %) NaSCN (2M): release agent NaSCN 2M; for Release percentage (highest observed; %) SDS (35 mM): release agent SDS 35 mM; for release of bound HA, SPR results: CB chips, quoted for comparison with column; for Release percentage (highest observed; %) pH 3.6: release by pH 3.6 buffer
Protocol: SPR tests: A temperature controlled NanoSPR8 Model 481 device with a 4-channel flow cell was used and calibration and warm up were performed (2 hr) prior to tests. Two flow cell channels were set as reference in all tests. Basic solution with surfactant (0.1 M NaOH and 1% SDS). acidic solution (0.1 M HCl), and water were used to clean the testing flow cell and tubing system.
A phosphate buffer solution (PB) for SPR studies was prepared by dissolving 21.48 g Na2HPO4 and 3.11 g KH2PO4 in 1 L Milli-Q water for SPR tests. With this buffer a variety of solutions were prepared: NaCl. Na2SO4 and NaSCN was dissolved in the PB to prepare a 2 M solution. Sodium dodecyl sulfate (SDS) solution of 1 wt % (˜35 mM) was prepared by dissolving SDS in PB with aid of bath sonication. Fatty acid solutions were made by pipetting fatty acid into PB and bath sonicating. Linoleic acid solution (LA) included 1.8 μL of LA and 10 mL PB. Fatty acid mix solution (FA mix) was prepared by dispersing 1.8 μL linoleic acid, 1.05 μL oleic acid and 1.08 μL palmitic acid in 10 mL PB. FA mix was an inhomogeneous emulsion due to the limited solubility of fatty acids even with the aid of bath sonication.
[…] The test was carried out in sequence of HA solution, buffer rinse, releasing agent rinse, buffer rinse, in cycles after an initial PB rinse. Three absorption and desorption cycles were performed on each sample for repeatability/stability. The first two cycles used the same release agents of interest and the third cycle used a reference release agent, usually 2 M NaSCN.
Percentage of HA released by different release agents was calculated by dividing the value difference between the […] adsorption SPR peak shift value (‘Adsorb’ in FIG. 7) and post-release signal value (‘Release’ in FIG. 7) using
SPR shift has a strong dependence on solution conditions, thus one can only compare shift signals after a buffer rinse. The initial sensor baseline is set to zero. For the first cycle, after initial HA exposure and buffer rinse a shift of 0.225 is seen corresponding to full HA coverage. After LA exposure and buffer rinse a drop in shift 0.122 is seen instead of the ideal zero if HA is completely released to initial state. The percent released is calculated as (0.225-0.122)/0.225 or ˜46%. […] Even though the total amount of captured protein remains stable, an increasing amount of un-released protein over cycles was observed. Un-releasable protein was expected due to fouling onto unprotected surface of desorbed surface chemistry and practical limitations of buffer rinse times. […] SPR angle shifts and releasability percent as a function of surface functionalization and release chemical are summarized in Table 2.

[2] = target: T2, human albumin indoxyl sulfate complex (HA-IS) (Homo sapiens, UniProt P02768); assay: Adsorption column of CB-functionalized agarose beads with HA-IS, BCA assay of eluent; assay type: binding; details: for release of HA bound to the column: release capacity compared to binding capacity
T2 construct: purchased Sigma-Aldrich
Source text: Adsorption column (set-up): Devcon 5-minute epoxy in Dev-tube (ITW Polymer Adhesives, USA) was used on all epoxied parts of the column and was allowed to cure for an hour before use. Agarose beads functionalized with Cibacron Blue dye and suspended in 20% ethanol and 0.1 M KH2PO4 (Blue Sepharose Fast Flow 6, GE Healthcare, USA) was obtained and used as-is.
As shown at FIGS. 5A and 5C, glass tube 15a holds agarose beads functionalized with human albumin binding chemistry Cibacron Blue dye, and a barbed inlet/outlet 15b with Luer lock and needle tip is included to flow a solution in and out of glass tube 15a. An interchangeable solution reservoir feed 15c is included. Specifically, glass tube 15a (inner diameter=4 mm) was cut to 4.1 cm (0.52 mL volume). Two sheets of 10.0 μm pore size Teflon membrane filters (Sterlitech Corp., USA) covered the eluent end of the tube and were sealed around the edge with larger diameter elastic tubing (Tygon SE-200, Saint-Gobain Corp., USA) with excess membrane trimmed by knife. The tubing was secured to the tube via glass-compatible glue (Loctite, Henkel AG & Co. KGaA. Germany) and then epoxied to prevent air leakage. The beads in their suspension fluid (0.739 mL total slurry) were pipetted into the tube on top of the membrane seal and drained to form a bed of beads. The other end of the tube was sealed with membrane filters and tubing in a similar manner. Both ends 15b of the bead bed tube were connected to a Luer lock needle assembly that were epoxied to input tubing to prevent fluid leakage. The solution reservoir 15c included a syringe and a Luer lock connection. The column was suspended vertically and syringe pump (Model NE 300, New Era Pump Systems, Inc., USA) set to 4.0 mL/min with 125-250 μL samples collected at time points with lag time experimentally accounted for. Replacing of solutions occurred by switching out the syringe at the base of the Luer lock needle assembly in 15b, ensuring no air bubbles were introduced.
A phosphate buffer (PB) (pH 7.4) for the adsorption column was prepared to mimic the salt composition of human blood serum. 144.3 mg/L CaCl2), 4.26 g/L Na2HPO4, 612.4 mg/L KH2PO4, 85.7 mg/L MgCl2, and 4.68 g/L NaCl were dissolved in HPLC-grade submicron filtered water under stirring and heat, then filtered through a 10.0 μm membrane filter. NaCl was purchased from EMD Chemicals Inc. (Germany): all other chemicals were obtained from Sigma-Aldrich (USA). NaSCN, indoxyl sulfate, and HA solutions were prepared by simple dissolution in PB. 0.58 mM linoleic acid (LA) solution was prepared by pipetting liquid LA into phosphate buffer and sonicating in 10-minute increments until micelles were formed and evenly distributed, indicated by the solution becoming uniformly cloudy. Solutions of micro BCA protein assay were prepared as instructed in a kit obtained from Thermo Scientific (USA).
In cycles, phosphate buffer, HA-IS complex solution, phosphate buffer, and then release agents (linoleic acid or NaSCN) were pumped through the column and the eluent was collected. CB-functionalized beads were expected to adsorb HA-IS and cause the dissociation of IS from the captured HA. Release agents were expected to cause desorption of captured IS-free HA from the adsorption column. These adsorption and desorption behaviors were studied by optical absorbance at 280 nm of the eluent proportional to HA-IS concentration. […] Then both LA and NaSCN release HA from the adsorption column. […] Without wishing to be bound by theory, it is thought that the delayed LA release was caused by LA micelles dissolving at the buffer solution exchange front where concentration drops below the critical micelle concentration (0.1 mM) giving more free-floating molecules of LA capable of release. This release profile may be optimized by multiple shorter buffer/LA cycles.
Bicinchoninic acid (BCA) assay is a protein sensitive quantification method which was used in this example to measure the concentration of HA. […]

[3] = target: T1, human albumin (HA); assay: SPR Langmuir isotherm of HA adsorption on ligand-functionalized sensor chips; assay type: binding; details: read-out: Kd of HA on SPR sensor modified with different ligands
Protocol: Langmuir Isotherm: HA was dissolved in PB to make solutions with concentration range from 0.1 mg/mL to 2.0 mg/mL for adsorption study. Such HA solutions were pumped through the flow cell in low to high sequence with 20 min. adsorption time for each solution. Between each HA adsorption session, buffer was used to rinse off unbound protein residue for 20 min. PB signal from selected reference channels was used as baseline.
Prior to further analysis, the raw SPR data, absolute maximum absorption angle versus time, was referenced to a baseline reading. A 3-point running average was applied to reduce noise.
The values of SPR signal shift (in degrees) induced by HA solutions of different concentrations were manually identified. For Langmuir adsorption model fitting, the SPR signal shifts were converted to fractional occupancy of adsorption sites (θ) by assuming 0% and 100% site occupancy under 0 mg/mL and 2 mg/mL HA solution treatment, respectively. After plotting the concentration on x-axis and θ on y-axis, the data was fitted to a Langmuir isotherm model with equation
The adsorption constant, Ka, was obtained under the best fitting condition. The desorption constant.

[4] = cited from earlier work
[5] = target: HSA (Homo sapiens, UniProt P02768); assay: HSA adsorption/desorption on Cibacron blue column with LA solutions of varying concentration; assay type: binding; details: LA 8 μl/10 ml, HSA 40 mg/ml, CB beads
Protocol: To test the aforementioned hypotheses, a series of experiments were conducted using LA solutions of varying concentrations and HSA solutions with a concentration of 40 mg/ml. […] The first adsorption-desorption cycle was executed with phosphate buffer serving as a mock release agent to reveal the actual desorption strength of the release agent. The amount of HSA released by LA was quantified by integrating the area beneath the release session curve and subtracting the baseline corresponding to the phosphate buffer rinse. This value represents the fraction of HSA that can be manipulated by the LA solution in a reversible manner. In this context, the adsorption of this fraction of HSA onto the Cibacron blue functionalized beads (CB beads) was considered reversible by LA. Subsequently, the reversible adsorption capacity of CB beads and the albumin release peak height, from FIG. 11A, were plotted against the LA solution concentration, as shown in FIG. 11B.

[6] = with respect to a monolayer protein binding signal strength

T1 sequence (P02768 25-609): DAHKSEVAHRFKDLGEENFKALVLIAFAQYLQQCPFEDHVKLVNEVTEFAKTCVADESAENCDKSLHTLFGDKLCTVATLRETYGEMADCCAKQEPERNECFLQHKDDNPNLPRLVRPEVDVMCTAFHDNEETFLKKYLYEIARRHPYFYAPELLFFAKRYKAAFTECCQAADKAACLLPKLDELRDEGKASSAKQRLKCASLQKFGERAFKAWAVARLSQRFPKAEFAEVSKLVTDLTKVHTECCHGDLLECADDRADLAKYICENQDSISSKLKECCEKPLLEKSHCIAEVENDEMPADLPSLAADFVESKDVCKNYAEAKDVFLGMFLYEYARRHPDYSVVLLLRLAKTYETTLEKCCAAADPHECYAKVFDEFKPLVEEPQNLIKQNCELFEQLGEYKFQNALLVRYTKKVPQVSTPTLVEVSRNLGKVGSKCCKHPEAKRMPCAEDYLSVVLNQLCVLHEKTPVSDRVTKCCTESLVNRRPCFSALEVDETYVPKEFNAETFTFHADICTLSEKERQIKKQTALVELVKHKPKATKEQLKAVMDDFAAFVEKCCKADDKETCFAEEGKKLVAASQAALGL
T2 sequence (P02768 25-609, one chain of several): as the sequence (P02768 25-609) above
HSA, sequence (P02768 25-609): as above

SPR angle shift after HA binding [1]: ~0.11 ° | SPR angle shift after HA binding ([1]; listed as Octane): 0.110 ° | Release percentage (highest observed; %) NaSCN (2M) [1]: 51.4% | Release percentage (highest observed; %) SDS (35 mM) [1]: 29.5%
Structure (SMILES): CCCCCCCC [Octane (C8; Alkane), Octane]

Structure (SMILES): N#C[S-].[Na+] [NaSCN, reference compound]
release capacity ([2]; cycle 3, CB-agarose bead column, BCA assay): 0.292 μmol HA/mL beads | release of HA bound to the column [2]: ≥ 79% | release of bound HA, SPR results ([1]; SPR): 65%

Kd ([3]; HA 0.1-2.0 mg/mL in PB, Langmuir fit, Kd=1/Ka): 1100 nM | SPR angle shift after HA binding [1]: ~0.19 ° | SPR angle shift after HA binding ([1]; listed as DB71): 0.19 ° | Release percentage (highest observed; %) NaSCN (2M) [1]: 0% | Release percentage (highest observed; %) SDS (35 mM) [1]: 0%
Structure (SMILES): Nc1ccc2c(O)c(N=Nc3ccc(N=Nc4ccc(N=Nc5cc(S(=O)(=O)[O-])c6cccc(S(=O)(=O)[O-])c6c5)c5ccccc45)c4ccc(S(=O)(=O)[O-])cc34)c(S(=O)(=O)[O-])cc2c1.[Na+].[Na+].[Na+].[Na+] [Direct Blue 71]

SPR angle shift after HA binding [1]: ~0.19 ° | SPR angle shift after HA binding ([1]; listed as tryptophan of —COOH terminus): 0.19 ° | Release percentage (highest observed; %) NaSCN (2M) [1]: 0% | Release percentage (highest observed; %) pH 3.6 [1]: 0%
Structure (SMILES): N[C@@H](Cc1c[nH]c2ccccc12)C(=O)O [Tryptophan (COOH term), Tryptophan]

Kd [3]: 3000 nM | SPR angle shift after HA binding ([1]; listed as CB): 0.25 ° | SPR angle shift after HA binding ([1]; listed as Cibacron Blue (CB)): ~0.25 ° | monolayer averaged SPR signal shift ([1]; average over chips (CB n=76; capric acid n=50)): 0.23 ° | Release percentage (highest observed; %) Na2SO4 (2M) ([1]; release agent Na2SO4 2M): 12.7% | Release percentage (highest observed; %) NaCl (2M) ([1]; release agent NaCl 2M): 34% | Release percentage (highest observed; %) NaSCN (2M) [1]: 78.0% | Release percentage (highest observed; %) SDS (35 mM) [1]: 93.0% | Release percentage (highest observed; %) FA mix ([1]; release agent fatty acid mix): 49.5% | Release percentage (highest observed; %) lbp (0.1 mM) ([1]; release agent lbp 0.1 mM): 0% | Release percentage (highest observed; %) LA (0.6 mM) ([1]; release agent linoleic acid 0.6 mM): 44.1% | Release percentage (highest observed; %) pH 3.6 [1]: 0% | Human serum albumin desorption percent, release agent Fatty Acid Mix [1, 6]: 37.4 ± 14.2% | Human serum albumin desorption percent, release agent Linoleic Acid [1, 6]: 31.0 ± 18.9% | Human serum albumin desorption percent, release agent NaSCN [1, 6]: 65.0 ± 12.3%
Structure (SMILES): Nc1c(S(=O)(=O)O)cc(Nc2ccc(Nc3nc(Cl)nc(Nc4ccccc4S(=O)(=O)O)n3)c(S(=O)(=O)O)c2)c2c1C(=O)c1ccccc1C2=O [Cibacron Blue]

release capacity ([2]; CB-agarose bead column, summary b116): ~0.2 μmol HA/mL beads | release capacity ([2]; CB-agarose bead column, summary b116, per mL beads): 13.5 mg/mL | release amounts ([2]; Cibacron blue agarose beads, plasma compatible linoleic acid as release agent): 0.23 μmol HA/mL beads | release capacity ([2]; cycle 1, CB-agarose bead column, BCA assay): 0.177 μmol HA/mL beads | release capacity ([2]; cycle 2, CB-agarose bead column, BCA assay): 0.232 μmol HA/mL beads | release of HA bound to the column [2]: at least 47% | HSA desorption capacity, previous study ([2]; value from the previous study): 15.3 mg/ml beads | release of bound HA, SPR results ([1]; SPR): 31% | albumin release capacity on CB surface ([1]; SPR, CB surface, concentrations of about 0.5 μg/mL): 44.1% | HSA desorption capacity [5]: 19.44 mg/ml beads
Structure (SMILES): CCCCC/C=C\C/C=C\CCCCCCCC(=O)O [LA, linoleic acid]
solubility in water [4]: insoluble

SPR angle shift after HA binding [1]: ~0.17 ° | SPR angle shift after HA binding ([1]; listed as tryptophan of —NH2 terminus): 0.170 ° | Release percentage (highest observed; %) NaSCN (2M) [1]: 15.0% | Release percentage (highest observed; %) SDS (35 mM) [1]: 0% | Release percentage (highest observed; %) pH 3.6 [1]: 0%
Structure (SMILES): N[C@@H](Cc1c[nH]c2ccccc12)C(=O)O [Tryptophan (NH2 term), Tryptophan]
